# In US7452965B2, “Colon tumor specific binding peptides” (University of Utah Research Foundation, priority 2002, dated 2008):
# Like-named read-outs stand apart in the source and are kept apart here. Bridge positions count the residues as written; N and C are the ends. Square brackets hold non-standard residues; d marks the D form. Ends that are not written are not given here. Peptide text beside a SMILES is read from it.
# What was measured:
# HT29 cells [1] = details: for ability of peptide to compete RPM (CPIEDRPMC) phage binding to HT29 cells: peptide 0-1000 μM; for ability of peptide to compete RPM (CPIEDRPMC) phage binding to HT29 cells / level of RPM associated phage binding to HT29 cells in presence of competitor: 4° C.; for level of RPM associated phage binding to HT29 cells in presence of competitor: percentage of phage bound in absence of competitor; for shift of EC50 of competition relative to RPM peptide: alanine mutants vs RPM peptide
# Protocol: Phage binding assay. HT29 cells were incubated with peptide in binding buffer at concentrations of 0, 0.1, 1, 10, 100, or 1000 μM for 30 minutes at 4° C. After 30 minutes of incubation, 10^10 pfu of phage were added to the cells and incubated at 4° C. for an additional 45 minutes. Following incubation, cells were washed 6× with wash buffer and the phage remaining bound were eluted with glycine. The number of phage bound to the cells was quantified with real time PCR.
# To determine whether […] (SEQ ID NO: 134) displaying phage bind to HT29 cells specifically, a competition assay was performed using phage and synthetic peptides, peptides corresponding to the specific sequence, […] (SEQ ID NO: 134), and the non-specific sequence, […] (SEQ ID NO: 135), were synthesized by standard methods and oxidized to form a disulfide bond. Reaction of the peptides before and after oxidation with ElIman's reagent was performed to verify presence of the disulfide bond. […] In FIG. 2A, HT29 cells were incubated with increasing log concentrations of […] (SEQ ID NO: 134) peptide and with a constant number of either specific or non-specific phage. The number of phage binding to the HT29 cells was quantified and the percentage binding calculated based on the number of phage that bind in the absence of competitor. The sequence […] The reciprocal experiment was also done with HT29 cells incubated with increasing log concentrations of specific or non-specific peptide and a constant concentration of phage displaying the peptide […] (SEQ ID NO: 134).
# The phage selection procedure produced naturally occurring substitution mutants so the phage and the peptide could be used to determine a functional consensus sequence for the family. HT29 cells were incubated with increasing log concentrations of […] (SEQ ID NO: 134) peptide and a constant number of phage displaying one of the sequences were selected.
# To examine the importance of each residue within the RPM sequence for binding to HT29 cells, peptides were synthesized having alanine mutations in either the arginine, proline, or methionine residue and used in phage competition assay as described above.
# HT29 cells [2] = experiment: Protease assay: RPM phage binding to protease-treated cells; details: 37° C.
# Protocol: HT29 cells were incubated at 37° C. with either active or boiled Collagenase diluted 1:20 for 10 minutes, Trypsin-EDTA 0.25% (Gibco) for 5 minutes or Proteinase K (Gibco) diluted 1:600 for 1 minute. After incubation, cells were then incubated with RPM bearing phage as described above. The number of phage remaining bound was quantified by real time PCR.
# (§1) In order to further this observation, HT29 cells were treated with active or boiled proteases to determine the effect of treatment on the ability of an RPM displaying phage to bind. HT29 cells were treated with active or boiled collagenase for 15 minutes, trypsin for 5 minutes, or proteinase K for 0.5 minutes at 37° C. After protease treatment, cells were washed, then an equal number of phage were added and allowed to bind. […] The decrease in phage binding to the HT29 cells was due to the protease activity since boiling the proteases abolished the effect with phage binding returning to levels of that observed for PBS treated cells (FIG. 6B). […] After treating HT29 cells with proteases as described above, MTT was added to the cells and incubated for 45 minutes at 37° C. After incubation, the cells were solubilized with 0.1N HCl in isopropanol and the absorbance due to MTT incorporation was determined.
# HT29 cells [3] = experiment: MTT viability of protease-treated cells; type: cell-based; details: MTT 45 minutes at 37° C. after protease treatment
# Protocol: as §1
# HT29 cells [4] = experiment: RPM-FITC immunofluorescence staining of cultured cells (confocal microscopy); type: cell-based
# Protocol: Cell Culture: HT29, HCT116, or a 50% mixture of HT29 and HCT116 cells were plated on glass slides (Nalge). Wells were incubated with 10 μM of RPM-FITC peptide for 45 minutes at 4° C. or 37° C. After washing with wash buffer, cells were blocked with 1% NGS, 0.1% BSA, 0.1% Triton-X100 in PBS. Following the blocking step, wells were incubated with the polyclonal p53 antibody, D10, (Santa Cruz) for 1 hour at room temperature. The wells were washed and incubated with the secondary antibodies GαFITC Alexa 488 (Molecular Probes) and GαMouse Alexa 647 (Molecular Probes) and the nuclear stain Topro-3 (Molecular Probes). Wells were washed and mounted using Pro-Long Anti-fade (Molecular Probes). Slides were analyzed by confocal microscopy.
# The peptide then was tested to determine whether it was able to differentiate HT29 from HCT116 cells. In order to distinguish HT29 from HCT116 cells in our immunohistochemical assays, staining was carried out in the presence of the transcription factor, p53. Staining for the protein p53 is a way to visually discriminate HT29 from HCT116 cells, since p53 is mutated and accumulates in HT29 cells but is wild type in HCT116 cells and thus, is rapidly degraded. […] To test the ability of the fluorescein conjugated peptide (RPM-FITC) to preferentially bind HT29 cells, HT29 and HCT116 cells were stained with RPM-FITC. […] When a mixture of HT29 and HCT116 cells was incubated with RPM-FITC and concurrently analyzed for the presence of p53, cells with the highest level of p53 protein also bound RPM-FITC (FIG. 5A).
# The ability of a molecule to translocate across the cell membrane is important for drug delivery. HT29 cells were incubated for 1 hour at either 4° C. or 37° C. in the presence of 100 uM RPM-FITC. After incubation, cells were washed, fixed with 2% paraformaldehyde, then incubated with an anti-FITC secondary antibody to amplify the fluorescence signal.
# human colon tumor = experiment: Peptide-binding assay on frozen tissue sections
# Protocol: (§2) A biopsy of sporadic colon adenocarcinoma, liver and lung sarcoma, and grossly uninvolved colon, liver, lung, and stomach were frozen in optimum cutting temperature (OCT) and […] cryostat sections placed on glass slides. Sections were stained with H&E and untreated adjacent sections were incubated with RPM-FITC. After incubating with RPM-FITC in binding buffer for 45 minutes at 4° C., slides were washed and mounted using Pro-Long Anti-Fade (Molecular Probes). Nuclei were visualized by a quick incubation with Topro-3 (Molecular Probes) present in the last wash. Samples were analyzed by confocal microscopy.
# [5] = tested on: lung and liver cancer, grossly uninvolved lung, liver, and stomach; experiment: Peptide-binding assay on frozen tissue sections; parameters: species or system human; details: cryostat sections
# Protocol: as §2
# To determine whether RPM-FITC was able to bind cancers originated from tissues other than colon or to other normal tissues, a peptide-binding assay was performed on cryostat sections of lung and liver cancer, and grossly uninvolved lung, liver, and stomach. As a positive control, a section of colon tumor was stained in parallel with the other sections. […] Binding to HT29 Cells is Dependent on the Amino Acids, RPMC-C (SEQ ID NO: 136).
compound,measurement,setting,value
"RPM middle: peptide bearing the RPM motif in the middle of the peptide, CPIRPMEDC (SEQ ID NO: 137)",fold less potent than RPM in competing with phage for HT29 cell binding,HT29 cells [1]; compared to RPM,over 100 fold
same,ability of peptide to compete RPM (CPIEDRPMC) phage binding to HT29 cells,HT29 cells [1],failed to compete
trypsin,decrease of RPM phage binding to active protease treated HT29 cells,HT29 cells [2],90%
same,average absorbance (MTT incorporation) of treated cells,HT29 cells [3],0.175
"CC[C@H](C)[C@@H]1NC(=O)[C@@H]2CCCN2C(=O)[C@@H](N)CSSC[C@@H](C(=O)O)NC(=O)[C@H](CCSC)NC(=O)[C@@H]2CCCN2C(=O)[C@H](CCCNC(=N)N)NC(=O)[C@H](CC(=O)O)NC(=O)[C@H](CCC(=O)O)NC1=O [CPIEDRPMC, cys-pro-ile-glu-asp-arg-pro-met-cys] (H-CPIEDRPMC-OH; disulfide 1-9)",ability of peptide to compete RPM (CPIEDRPMC) phage binding to HT29 cells,HT29 cells [1],able to compete
same,ability of peptide to compete RPM (CPIEDRPMC) phage binding to HT29 cells,HT29 cells [1]; listed as RPM peptide,successfully abolished binding
same,level of RPM associated phage binding to HT29 cells in presence of competitor,HT29 cells [1],less than 4%
same,EC50,"HT29 cells [1]; read-out: EC50 of competition, competition of RPM displaying phage on HT29 cells",5 µM
same,effect of unlabeled competitor on RPM-FITC staining of HT29 cells,HT29 cells [4],able to abolish
same,effect of unlabeled competitor on RPM-FITC binding to colon tumor,human colon tumor,abrogate binding
same,"labeling of lung and liver cancer and uninvolved lung, liver, stomach",[5],failed to stain
CC[C@H](C)[C@@H]1NC(=O)[C@@H]2CCCN2C(=O)[C@@H](N)CSSC[C@@H](C(=O)O)NC(=O)[C@H](CCSC)NC(=O)[C@@H]2CCCN2C(=O)[C@H](C)NC(=O)[C@H](CC(=O)O)NC(=O)[C@H](CCC(=O)O)NC1=O [APM] (H-CPIEDAPMC-OH; disulfide 1-9 (inferred); N-terminus and C-terminus assumed),EC50,HT29 cells [1],690 µM
same,shift of EC50 of competition relative to RPM peptide,HT29 cells [1],~100 fold
CKHLGPQLC (disulfide 1-9 (inferred)) [reference compound],ability of peptide to compete RPM (CPIEDRPMC) phage binding to HT29 cells,HT29 cells [1],not able to compete
same,ability of peptide to compete RPM (CPIEDRPMC) phage binding to HT29 cells,HT29 cells [1]; listed as unrelated peptide,failed to block
same,level of RPM associated phage binding to HT29 cells in presence of competitor,HT29 cells [1],100%
same,effect of unlabeled competitor on RPM-FITC staining of HT29 cells,HT29 cells [4],unaffected
CC[C@H](C)[C@@H]1NC(=O)[C@@H]2CCCN2C(=O)[C@@H](N)CSSC[C@@H](C(=O)O)NC(=O)[C@H](C)NC(=O)[C@@H]2CCCN2C(=O)[C@H](CCCNC(=N)N)NC(=O)[C@H](CC(=O)O)NC(=O)[C@H](CCC(=O)O)NC1=O [RPA] (H-CPIEDRPAC-OH; disulfide 1-9 (inferred); N-terminus and C-terminus assumed),EC50,HT29 cells [1],545 µM
same,shift of EC50 of competition relative to RPM peptide,HT29 cells [1],~100 fold
A11 D RPM: RPM peptide consisting of all D amino acids ([dC][dP][dI][dE][dD][dR][dP][dM][dC]; cysteine pairing not given here),ability of peptide to compete RPM (CPIEDRPMC) phage binding to HT29 cells,HT29 cells [1],not able to compete
same,ability of peptide to compete RPM (CPIEDRPMC) phage binding to HT29 cells,HT29 cells [1]; listed as peptide synthesized with all D amino acids,failed to compete
collagenase,decrease of RPM phage binding to active protease treated HT29 cells,HT29 cells [2],85%
same,average absorbance (MTT incorporation) of treated cells,HT29 cells [3],0.189
